Source: US11667651B2, “Aminopyridine derivatives as phosphatidylinositol phosphate kinase inhibitors” (HiberCell, Inc., priority 2017, dated 2023)

Key:
Format in all cases: biochemical
[1] = biological target: T1, PIP4K2B (Homo sapiens, UniProt P78356); test: Trans-FI P kinase assay PIP4K2B (Table 4); details: compounds listed under IC50 bins; read-out: Trans-FI P kinase assays: PIP4K2B IC50
T1 construct: made in house; host or cells: E. coli
T1 sequence (P78356 1-416): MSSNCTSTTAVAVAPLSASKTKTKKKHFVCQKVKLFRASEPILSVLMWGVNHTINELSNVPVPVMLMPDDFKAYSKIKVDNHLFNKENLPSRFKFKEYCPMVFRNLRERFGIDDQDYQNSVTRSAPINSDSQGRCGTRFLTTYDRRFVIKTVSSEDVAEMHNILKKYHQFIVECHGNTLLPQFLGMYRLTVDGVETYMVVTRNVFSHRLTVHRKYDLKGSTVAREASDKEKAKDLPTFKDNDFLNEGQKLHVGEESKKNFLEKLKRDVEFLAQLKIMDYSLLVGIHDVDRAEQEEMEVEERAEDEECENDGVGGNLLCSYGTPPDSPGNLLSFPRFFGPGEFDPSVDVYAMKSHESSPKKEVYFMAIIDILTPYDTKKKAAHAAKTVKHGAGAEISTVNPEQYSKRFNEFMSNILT
How it was run: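 Transcreener FI detection (Ex 584/Em 623) of GDP, converted via calibration curve, gives IC50 from residual activity versus log concentration (highest 4.8 μM). Reaction: 80 μM PI5P plus DOPE carrier, 100 μM GTP, 5 nM GST-tagged enzyme, pH 7.3 HEPES with MgCl2 and 5% DMSO, 2 h after 1 h enzyme-compound preincubation at 27° C.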

[2] = biological target: T2, PIP4K2A (Homo sapiens, UniProt P48426); test: Kinase Assay PIP4K2 A (Table 2); parameters: 4 nM PIP4K2A (full length protein, SignalChem); purchased SignalChem; details: compounds listed under IC50 bins
T2 sequence (P48426 1-406): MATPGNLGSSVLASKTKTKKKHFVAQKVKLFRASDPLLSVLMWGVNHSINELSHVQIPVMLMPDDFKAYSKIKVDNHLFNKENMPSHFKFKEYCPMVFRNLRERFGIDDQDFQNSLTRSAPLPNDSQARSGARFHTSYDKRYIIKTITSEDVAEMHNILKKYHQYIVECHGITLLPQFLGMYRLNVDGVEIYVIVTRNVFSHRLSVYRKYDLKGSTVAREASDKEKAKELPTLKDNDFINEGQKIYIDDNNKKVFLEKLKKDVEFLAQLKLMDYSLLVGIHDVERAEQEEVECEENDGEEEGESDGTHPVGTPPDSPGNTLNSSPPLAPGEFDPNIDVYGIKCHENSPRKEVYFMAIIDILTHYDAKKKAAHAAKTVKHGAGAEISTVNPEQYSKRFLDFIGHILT
How it was run: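 Full-length PIP4K2A (4 nM in the added mix, with 100 μM PI(5)P diC8) pre-incubated 15 min at RT with compounds (10-point, 3-fold series) in 20 mM MOPS pH 7.2, 25 mM MgCl2, 0.005% Tween 20. ATP added from a 60 μM solution, 1 h at RT; ADP-Glo luminescence, IC50 fitted from % inhibition versus DMSO.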

[3] = biological target: T2, PIP4K2A; test: ADP-glo kinase assay PIP4K 2A (Table 3); parameters: made in house; host or cells: E. coli; details: compounds listed under IC50 bins
How it was run: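 Full-length PIP4K2A (4 nM in the mix) with 100 μM PI(5)P diC8 pre-incubated 15 min with compound in MOPS pH 7.2, 25 mM MgCl2; ATP added (60 μM solution), 1 h at RT. ADP formed read by ADP-Glo luminescence; 10-point curves versus DMSO controls fitted to IC50.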

Row | SMILES | IC50 [1] [nM] | IC50 [2] [nM] | IC50 [3] [nM]
1 | CN(C)C(=O)c1ccc(-c2ccc(Nc3cncc(NC(=O)c4ccnc(N)c4)c3)nc2)cc1 [Example 131, 2-amino-N-(5-((5-(4-(dimethylcarbamoyl)phenyl)pyridin-2-yl)amino)pyridin-3-yl)isonicotinamide] | 10 to 100 | 1 to 10 | 10 to 100
2 | CN(C)C(=O)c1ccc(-c2ccc(Nc3cncc(NC(=O)c4ccc5c(c4)COB5O)c3)nc2)cc1 [Example 132, N-(5-((5-(4-(dimethylcarbamoyl)phenyl)pyridin-2-yl)amino)pyridin-3-yl)-1-hydroxy-1,3-dihydrobenzo[c][1,2]oxaborole-5-carboxamide] | 10 to 100 | 1 to 10 | 10 to 100
3 | CN(C)C(=O)c1ccc(-c2ccc(Nc3cncc(NC(=O)c4ccc5c(c4)B(O)OC5)c3)nc2)cc1 [Example 133, N-(5-((5-(4-(dimethylcarbamoyl)phenyl)pyridin-2-yl)amino)pyridin-3-yl)-1-hydroxy-1,3-dihydrobenzo[c][1,2]oxaborole-6-carboxamide] | 10 to 100 | 10 to 100 | 10 to 100
4 | CN(C)C(=O)c1ccc(-c2ccc(Nc3cncc(N4CCC(Cc5cccc(N)c5)C4=O)c3)nc2)cc1 (stereo not drawn) [Example 134, 4-(6-((5-(3-(3-aminobenzyl)-2-oxopyrrolidin-1-yl)pyridin-3-yl)amino)pyridin-3-yl)-N,N-dimethylbenzamide] | 10 to 100 | 10 to 100 | 10 to 100
5 | CN(C)C(=O)c1ccc(-c2ccc(Nc3cncc(NC(=O)c4ccc5cc[nH]c5c4)c3)nc2)cc1 [Example 135, N-(5-((5-(4-(dimethylcarbamoyl)phenyl)pyridin-2-yl)amino)pyridin-3-yl)-1H-indole-6-carboxamide] | 10 to 100 | 10 to 100 | 10 to 100
6 | CN(C)C(=O)c1ccc(-c2ccc(Nc3cncc(NC(=O)c4ccc5ncoc5c4)c3)nc2)cc1 [Example 136, N-(5-((5-(4-(dimethylcarbamoyl)phenyl)pyridin-2-yl)amino)pyridin-3-yl)benzo[d]oxazole-6-carboxamide] | 10 to 100 | 10 to 100 | 10 to 100
7 | CN(C)C(=O)c1ccc(-c2ccc(Nc3cncc(NC(=O)CCc4ccccc4)c3)nc2)cc1 [Example 137, N,N-dimethyl-4-(6-((5-(3-phenylpropanamido)pyridin-3-yl)amino)pyridin-3-yl)benzamide] | 10 to 100 | 10 to 100 | 10 to 100
8 | CN(C)C(=O)c1ccc(-c2ccc(Nc3cncc(NC(=O)C4CC4c4ccccc4)c3)nc2)cc1 (stereo not drawn) [Example 138, N,N-dimethyl-4-(6-((5-(2-phenylcyclopropane-1-carboxamido)pyridin-3-yl)amino)pyridin-3-yl)benzamide] | 10 to 100 | 1 to 10 | 1 to 10
9 | CN(C)C(=O)c1ccc(-c2ccc(Nc3cncc(NC(=O)c4ccc(F)cc4)c3)nc2)cc1 [Example 139, 4-(6-((5-(4-fluorobenzamido)pyridin-3-yl)amino)pyridin-3-yl)-N,N-dimethylbenzamide] | 10 to 100 | 10 to 100 | 10 to 100
10 | CN(C)C(=O)c1ccc(-c2ccc(Nc3cncc(NC(=O)c4cccc(F)c4)c3)nc2)cc1 [Example 140, 4-(6-((5-(3-fluorobenzamido)pyridin-3-yl)amino)pyridin-3-yl)-N,N-dimethylbenzamide] | 10 to 100 | 10 to 100 | 10 to 100
11 | COc1cccc(C(=O)Nc2cncc(Nc3ccc(-c4ccc(C(=O)N(C)C)cc4)cn3)c2)c1 [Example 141, 4-(6-((5-(3-methoxybenzamido)pyridin-3-yl)amino)pyridin-3-yl)-N,N-dimethylbenzamide] | 10 to 100 | 1 to 10 | 10 to 100
12 | COc1ccc(C(=O)Nc2cncc(Nc3ccc(-c4ccc(C(=O)N(C)C)cc4)cn3)c2)cc1 [Example 142, 4-(6-((5-(4-methoxybenzamido)pyridin-3-yl)amino)pyridin-3-yl)-N,N-dimethylbenzamide] | 10 to 100 | 10 to 100 | 10 to 100
13 | CN(C)C(=O)c1ccc(-c2ccc(Nc3cncc(NC(=O)c4cccc5[nH]ccc45)c3)nc2)cc1 [Example 143, N-(5-((5-(4-(dimethylcarbamoyl)phenyl)pyridin-2-yl)amino)pyridin-3-yl)-1H-indole-4-carboxamide] | 10 to 100 | 1 to 10 | 10 to 100
14 | CNC(=O)c1cccc2ncc(Nc3ccc(-c4ccc(N5CCCC5=O)cc4)cn3)cc12 [Example 146, N-methyl-3-((5-(4-(2-oxopyrrolidin-1-yl)phenyl)pyridin-2-yl)amino)quinoline-5-carboxamide] | 10 to 100 | 100 to 1000 | 10 to 100
15 | CN(C)C(=O)c1cccc2ncc(Nc3ccc(-c4ccc(N5CCCC5=O)cc4)cn3)cc12 [Example 147, N,N-dimethyl-3-((5-(4-(2-oxopyrrolidin-1-yl)phenyl)pyridin-2-yl)amino)quinoline-5-carboxamide] | > 1000 | 100 to 1000 | 100 to 1000

Results, then the compound that gave them:

Row | IC50 [1] [nM] | IC50 [2] [nM] | IC50 [3] [nM] | SMILES
16 | 10 to 100 | 10 to 100 | 100 to 1000 | CN(C)C(=O)c1ccc(-c2ccc(Nc3cncc(NC(=O)CC#N)c3)nc2)cc1 [Example 122, 4-(6-((5-(2-cyanoacetamido)pyridin-3-yl)amino)pyridin-3-yl)-N,N-dimethylbenzamide]
17 | 10 to 100 | 10 to 100 | 100 to 1000 | CN(C)C(=O)c1ccc(-c2ccc(Nc3cncc(NC(=O)Cc4ccccc4)c3)nc2)cc1 [Example 123, N,N-dimethyl-4-(6-((5-(2-phenylacetamido)pyridin-3-yl)amino)pyridin-3-yl)benzamide]
18 | 10 to 100 | 10 to 100 | 10 to 100 | CNC(=O)Nc1cncc(Nc2ccc(-c3ccc(C(=O)N(C)C)cc3)cn2)c1 [Example 124, N,N-dimethyl-4-(6-((5-(3-methylureido)pyridin-3-yl)amino)pyridin-3-yl)benzamide]
19 | 10 to 100 | 100 to 1000 | 100 to 1000 | CN(C)CC(=O)Nc1cncc(Nc2ccc(-c3ccc(C(=O)N(C)C)cc3)cn2)c1 [Example 125, 4-(6-((5-(2-(dimethylamino)acetamido)pyridin-3-yl)amino)pyridin-3-yl)-N,N-dimethylbenzamide]
20 | 10 to 100 | 10 to 100 | 100 to 1000 | CN(C)C(=O)c1ccc(-c2ccc(Nc3cncc(NC(=O)C4CCOCC4)c3)nc2)cc1 [Example 126, N-(5-((5-(4-(dimethylcarbamoyl)phenyl)pyridin-2-yl)amino)pyridin-3-yl)tetrahydro-2H-pyran-4-carboxamide]
21 | 10 to 100 | 10 to 100 | 10 to 100 | CN(C)C(=O)c1ccc(-c2ccc(Nc3cncc(NS(C)(=O)=O)c3)nc2)cc1 [Example 127, N,N-dimethyl-4-(6-((5-(methylsulfonamido)pyridin-3-yl)amino)pyridin-3-yl)benzamide]
22 | 10 to 100 | 10 to 100 | 100 to 1000 | CN(C)C(=O)c1ccc(-c2ccc(Nc3cncc(NC(=O)c4ccccn4)c3)nc2)cc1 [Example 128, N-(5-((5-(4-(dimethylcarbamoyl)phenyl)pyridin-2-yl)amino)pyridin-3-yl)picolinamide]
23 | 10 to 100 | 10 to 100 | 100 to 1000 | CN(C)C(=O)c1ccc(-c2ccc(Nc3cncc(NC(=O)c4cccnc4)c3)nc2)cc1 [Example 129, N-(5-((5-(4-(dimethylcarbamoyl)phenyl)pyridin-2-yl)amino)pyridin-3-yl)nicotinamide]
24 | 10 to 100 | 10 to 100 | 100 to 1000 | CN(C)C(=O)c1ccc(-c2ccc(Nc3cncc(NC(=O)c4ccncc4)c3)nc2)cc1 [Example 130, N-(5-((5-(4-(dimethylcarbamoyl)phenyl)pyridin-2-yl)amino)pyridin-3-yl)isonicotinamide]
